Experiments:
Format in all cases: in vivo
[1] = tested on: Erysiphe graminis f.sp. hordei; assay: Curative activity against powdery mildew of barley (Experiment 7); conditions: barley seedlings (variety Sekishinriki), sprayed one day after inoculation at 3 ppm (30 ml/3 pots), further 10 days; diseased area on the first leaf
Experimental: Barley seedlings (variety […]) at the first leaf stage were inoculated with conidia of Erysiphe graminis f.sp. hordei and kept in a greenhouse at 15 - 20°C. After one day, the seedlings were sprayed with an aqueous suspension of the test compound at a concentration of 3 ppm (30 ml/3 pots), and they continued to be kept in the greenhouse at that temperature for a further 10 days. The disease controlling index was given on the basis of the diseased area on the first leaf.

Venturia inaequalis = assay: Preventive activity against apple scab (Experiment 9); conditions: for Index (disease controlling index): apple seedlings sprayed at 300 ppm, inoculated after 24 hours, 3 days moist chamber then 10 days greenhouse, diseased area on third and fourth leaves
Experimental: Apple seedlings at the 3 - 4 leaf stage were sprayed with an aqueous suspension of the test compound at a concentration of 300 ppm (30 ml/3 pots). The seedlings were then kept for 24 hours at room temperature, after which they were inoculated with the fungus, Venturia inaequalis, by spraying a spore suspension of the fungus over the seedlings. After inoculation, the seedlings were kept in a moist chamber for 3 days at 20 - 22 °C and then moved to a greenhouse at 20 - 22°C for 10 days. The disease controlling index was given on the basis of the diseased area on the third and fourth leaves.

Rhizoctonia solani [2] = assay: Preventive activity against sheath blight of rice plants (Experiment 2); design: key: 0 = disease as untreated, 5 = no disease (complete control); conditions: rice seedlings (variety Nihonbare), sprayed at 100 ppm (30 ml/3 pots) 24 hours before inoculation, 5 days; height of the lesions
Experimental: Rice seedlings (variety Nihonbare) at the 4 - 5 leaf stage were sprayed with an aqueous suspension of the test compound at a concentration of 100 ppm (30 ml/3 pots). The seedlings were then kept for 24 hours at room temperature, after which they were inoculated with the fungus, Rhizoctonia solani, by placing 4 - 5 oat grains on which the fungus had previously been cultured around the base of each seedling. The seedlings were then kept in a moist chamber for 5 days at 25 - 27 °C. The disease controlling index was given on the basis of the height of the lesions formed on the rice seedlings.
Except in Table 12G, the compounds tested have the formula (1-1), in which Ar represents the group shown at the beginning of each part of the Table and R^1, R^2, X and Y are as defined in the Table.
(§1) The disease controlling index shown in the foregoing Tables 11 to 19 is indicated by the following codes: • 5--no disease (complete control) • 4--disease rate is less than 10% of the untreated plant • 3--disease rate is 10% - 30% of the untreated plant • 2--disease rate is 30% - 50% of the untreated plant • 1--disease rate is 50% - 70% of the untreated plant • 0--disease rate is almost same as the untreated plant.

Puccinia recondita = assay: Curative activity against leaf rust of wheat (Experiment 6); conditions: wheat seedlings (variety Norin No 61), sprayed after inoculation at 3 ppm (30 ml/3 pots), 10 days; diseased area on the first leaf
Experimental: Wheat seedlings (variety Norin No 61) at the first leaf stage were inoculated with the fungus, Puccinia recondita, by spraying them with a spore suspension of the fungus. They were then kept in a moist chamber for 24 hours at 20 - 22 °C, after which they were moved to a greenhouse at 15 - 20 °C. […] The seedlings were then continuously kept in the greenhouse for 10 days. The disease controlling index was given on the basis of diseased area on the first leaf.

Gibberella Fujikuroi = assay: Activity against bakanae disease of rice plants by seed soaking (Experiment 5); design: key: 0 = disease as untreated, 5 = no disease (complete control); conditions: infected rice seeds (variety Tanginbozu) immersed 3 days in aqueous suspension (concentration not given), 3 weeks; number of diseased seedlings
Experimental: Ten grams of rice seeds (variety Tanginbozu), infected with Gibberella Fujikuroi, were immersed in 20 ml of an aqueous suspension of the test compound for 3 days. At the end of this time, the treated seeds were densely sown in soil in pots, and the pots were placed in a greenhouse at 20 - 30 °C for 3 weeks. The disease controlling index was given on the basis of the number of diseased seedlings.
(§2) The compounds tested have the formula (1-1), in which Ar represents the group shown at the beginning of each part of the Table and R^1, R^2, X and Y are as defined in the Table.
as §1

Sphaerotheca fuliginea = assay: Preventive activity against powdery mildew of cucumber (Experiment 8); conditions: cucumber seedlings sprayed at 300 ppm, inoculated after 24 hours, evaluated after 7 days in greenhouse; diseased area on third and fourth leaves
Experimental: Cucumber seedlings (variety Sagamihanpaku) at the 3 - 4 leaf stage were sprayed with an aqueous suspension of the test compound at a concentration of 300 ppm (30 ml/3 pots). The seedlings were then kept for 24 hours at room temperature, after which they were inoculated with conidida of Sphaerotheca fuliginea. After keeping the seedlings in a greenhouse for 7 days, the disease controlling index was evaluated on the basis of the diseased area on the third and fourth leaves.

Pyricularia oryzae = conditions: rice seedlings (variety Sachikaze), sprayed 24 hours after inoculation at 10 ppm (30 ml/3 pots), further 6 days; number of lesions on the upper two leaves
Rhizoctonia solani [3] = assay: Curative activity against sheath blight of rice plants (Experiment 3); design: key: 0 = disease as untreated, 5 = no disease (complete control); conditions: rice seedlings (variety Nihonbare), sprayed 24 hours after inoculation at 10 ppm (30 ml/3 pots), further 5 days; height of the lesions
Experimental: Rice seedlings (variety Nihonbare) at the 4 - 5 leaf stage were inoculated with the fungus, Rhizoctonia solani, by placing 4 - 5 oat grains on which the fungus had previously been cultured around the base of each rice seedling and keeping them in a moist chamber at 25 - 27 °C. After 24 hours, the rice seedlings were sprayed with an aqueous suspension of the test compound at a concentration of 10 ppm (30 ml/3 pots) and they then continued to be kept in the moist chamber for a further 5 days. The disease controlling index was given on the basis of the height of the lesions formed on the rice seedlings.
as §2, §1

Rhizoctonia solani [4] = assay: Preventive activity against sheath blight of rice plants by submerged application (Experiment 4); conditions: rice seedlings (variety Nihonbare), applied to the water in the pots, 100 g per 10 ares, inoculated after 7 days, 5 days; height of the lesions
Description: Rice seedlings (variety Nihonbare) at the 4 - 5 leaf stage grown in pots were flooded to a depth of 1 cm with water. The test compound was then applied to the water in the pots in an amount corresponding to 100 g per 10 ares. After keeping the seedlings in a greenhouse for 7 days, the water was drained from the pots and the seedlings were inoculated with the fungus, Rhizoctonia solani, by placing 4 - 5 oat grains on which the fungus had previously been cultured around the base of each seedling. The seedlings were then kept in a moist chamber for 5 days at 25 - 27 °C. The disease controlling index was given on the basis of the height of the lesions formed on the rice seedlings.
Except for Table 14F, the compounds tested have the formula (1-1), in which Ar represents the group shown at the beginning of each part of the Table and R^1, R^2, X and Y are as defined in the Table.
as §1

Compound	disease controlling index [1]	Index (disease controlling index) (Venturia inaequalis)	disease controlling index (Rhizoctonia solani [2])	disease controlling index (Puccinia recondita)	disease controlling index (Gibberella Fujikuroi)	Index (disease controlling index) (Sphaerotheca fuliginea)	disease controlling index (Pyricularia oryzae)	disease controlling index (Rhizoctonia solani [3])	disease controlling index (Venturia inaequalis; apple seedlings, sprayed at 300 ppm (30 ml/3 pots) 24 hours before inoculation, diseased area on the third and fourth leaves)	disease controlling index (Rhizoctonia solani [4])
C[C@@H](NC(=O)c1ccc(F)cc1)[C@](O)(Cn1cncn1)c1ccc(Cl)cc1Cl (relative stereo) [Example 4, (2R*, 3R*)-2-(2,4-Dichlorophenyl)-3-(4-fluorobenzoylamino)-1-(1 H-1 ,2,4-triazol-1-yl)-2-butanol]	5	5	4 (disease rate is less than 10% of the untreated plant)	5						
C[C@@H](NC(=O)c1ccc(Cl)cc1Cl)[C@](O)(Cn1cncn1)c1ccc(Cl)cc1Cl (relative stereo) [Example 11, (2R*, 3R*)-3-(2,4-Dichlorobenzoylamino)-2-(2,4-dichlorophenyl)-1-(1H-1,2,4-triazol-1-yl)-2-butanol]		5	4 (disease rate is less than 10% of the untreated plant)		4 (disease rate is less than 10% of the untreated plant)	5				
C[C@@H](NC(=O)c1ccc(C(F)(F)F)cc1)[C@](O)(Cn1cncn1)c1ccc(Cl)cc1Cl (relative stereo) [Example 12, (2R*, 3R*)-2-(2,4-Dichlorophenyl)-1-(1H-1,2,4-triazol-1-yl)-3-(4-trifluoromethylbenzoylamino)-2-butanol]	5	5	5	5	4 (disease rate is less than 10% of the untreated plant)	5	5	5		
C[C@@H](NC(=O)c1ccc(F)cc1)[C@](O)(Cn1cncn1)c1ccc(F)cc1F (relative stereo) [Example 15, (2R*, 3R*)-2-(2,4-Difluorophenyl)-3-(4-fluorobenzoylamino)-1-(1H-1,2,4-triazol-1-yl)-2-butanol]	5			5	4 (disease rate is less than 10% of the untreated plant)	5				
C[C@@H](NC(=O)c1ccc(Cl)cc1)[C@](O)(Cn1cncn1)c1ccc(F)cc1F (relative stereo) [Example 16, (2R*, 3R*)-3-(4-Chlorobenzoylamino)-2-(2,4-difluorophenyl)-1-(1 H-1 ,2,4-triazol-1-yl)-2-butanol]	5		5	5	4 (disease rate is less than 10% of the untreated plant)	5	5	5	5	
C[C@@H](N=[N+]=[N-])[C@](O)(Cn1cncn1)c1ccc(Cl)cc1 (relative stereo) [Example 63, (2R*, 3R*)-3-Azido-2-(4-chlorophenyl)-1-(1H-1,2,4-triazol-1-yl)-2-butanol]					5					
C[C@@H](CN=[N+]=[N-])[C@](O)(Cn1cncn1)c1ccc(Cl)cc1Cl (relative stereo) [Example 90, (2R*, 3S*)-4-Azido-2-(2,4-dichlorophenyl)-3-methyl-1-(1H-1,2,4-triazol-1-yl)-2-butanol]			5		5		5			5
C[C@@H](N1C(=O)c2ccc(Cl)cc2C1=O)[C@](O)(Cn1cncn1)c1ccc(F)cc1F (relative stereo) [Example 135, (2R*, 3R*)-2-(2,4-Difluorophenyl)-3-(4-chlorophthalimido)-1-(1H-1,2,4-triazol-1-yl)-2-butanol]	5			5	4 (disease rate is less than 10% of the untreated plant)	5	4 (disease rate is less than 10% of the untreated plant)			
CC[C@@H](OC1CCCCO1)[C@](O)(Cn1cncn1)c1ccc(F)cc1F (relative stereo) [Example 202, (2R^*, 3R*)-2-(2,4-Difluorophenyl)-3-tetrahydropyranyloxy)-1-(1H-1,2,4-triazol-1-yl)-2-pentanol]	5		4 (disease rate is less than 10% of the untreated plant)	5			4 (disease rate is less than 10% of the untreated plant)	4 (disease rate is less than 10% of the untreated plant)		
O=C(NCC(O)(Cn1cncn1)c1ccc(Cl)cc1Cl)c1ccc(Cl)cc1 (stereo not shown) [Compound X, 3-(4-chlorobenzoylamino)-2-(2,4-dichlorophenyl)-1-(1H-1,2,4-triaiol-1-yl)-2-propanol, reference compound]							0	0		0
C[C@@H](NC(=O)c1ccc(C(F)(F)F)cc1)[C@](O)(Cn1cncn1)c1ccc(Cl)cc1Cl [Example 13, (2R, 3R)-2-(2,4-Dichlorophenyl)-3-(4-trifluoromethylbenzoylamino)-1-(1H-1,2,4-triazol-1-yl)-2-butanol]	5		4 (disease rate is less than 10% of the untreated plant)	5	5	5	5			

Reference: patent EP0332387B1, “Triazole derivatives, their preparation and their use as fungicides” (Sankyo Company Limited, priority 1988, dated 1989)
